From patent US8778402B2, “Dry powder formulation comprising a corticosteroid and a beta-adrenergic for administration by inhalation” (Chiesi Farmaceutici S.p.A., priority 2012, dated 2014) come the findings set out here.

The series can be described thus: Particle size distribution of micronised BDP by laser diffraction (Malvern). It is filed as physicochemical. Particulars: micronised beclometasone dipropionate; volume diameter of 10% of particles. As to the method:
The size of the particles of the active is determined by measuring the characteristic equivalent sphere diameter, known as volume diameter, by laser diffraction. In the reported examples, the volume diameter has been determined using a Malvern apparatus. However, other equivalent apparatus may be used by the skilled person in the art.
The particle size was determined by laser diffraction using a Malvern apparatus. The parameter taken into consideration was the VD in microns of 10%, 50% and 90% of the particles expressed as d(v,0.1), d(v, 0.5) and d(v, 0.9), respectively, which correspond to the mass diameter assuming a size independent density for the particles. The span [d(v,0.9)−d(v,0.1)]/d(v,0.5) is also reported. The Specific Surface Area (SSA) was determined by BET nitrogen adsorption using a Coulter SA3100 apparatus as a mean of three determinations.

For the compound `CCC(=O)OCC(=O)[C@@]1(OC(=O)CC)[C@@H](C)C[C@H]2[C@@H]3CCC4=CC(=O)C=C[C@]4(C)[C@@]3(Cl)[C@@H](O)C[C@@]21C` [Batch 1, beclometasone dipropionate], the “d (v, 0.1)” value came to 0.86 μm. As for `CCC(=O)OCC(=O)[C@@]1(OC(=O)CC)[C@@H](C)C[C@H]2[C@@H]3CCC4=CC(=O)C=C[C@]4(C)[C@@]3(Cl)[C@@H](O)C[C@@]21C` [Batch 2, beclometasone dipropionate], the “d (v, 0.1)” value came to 0.96 μm.

Take `CCC(=O)OCC(=O)[C@@]1(OC(=O)CC)[C@@H](C)C[C@H]2[C@@H]3CCC4=CC(=O)C=C[C@]4(C)[C@@]3(Cl)[C@@H](O)C[C@@]21C` [Batch 3, beclometasone dipropionate]: the “d (v, 0.1)” value is given as 0.95 μm. Turning to `CCC(=O)OCC(=O)[C@@]1(OC(=O)CC)[C@@H](C)C[C@H]2[C@@H]3CCC4=CC(=O)C=C[C@]4(C)[C@@]3(Cl)[C@@H](O)C[C@@]21C` [Batch 4, beclometasone dipropionate], the “d (v, 0.1)” value is recorded as 0.91 μm.
